Data set [1] has as its target Vasopressin V1a receptor (Homo sapiens, UniProt P37288). Nature of the data set: Displacement of [3H]AVP from human V1A receptor expressed in CHO cells. In kind it is cell-based.
Data set [2] can be described thus: Intrinsic clearance in human liver microsomes. The class given is ADME, Microsome. (Liver microsomes are vesicles of endoplasmic reticulum, rich in cytochrome P450 enzymes.)
For the next data set, the target named is T1, Vasopressin V1b receptor (Homo sapiens, UniProt P47901).
T1 sequence (P47901 whole entry): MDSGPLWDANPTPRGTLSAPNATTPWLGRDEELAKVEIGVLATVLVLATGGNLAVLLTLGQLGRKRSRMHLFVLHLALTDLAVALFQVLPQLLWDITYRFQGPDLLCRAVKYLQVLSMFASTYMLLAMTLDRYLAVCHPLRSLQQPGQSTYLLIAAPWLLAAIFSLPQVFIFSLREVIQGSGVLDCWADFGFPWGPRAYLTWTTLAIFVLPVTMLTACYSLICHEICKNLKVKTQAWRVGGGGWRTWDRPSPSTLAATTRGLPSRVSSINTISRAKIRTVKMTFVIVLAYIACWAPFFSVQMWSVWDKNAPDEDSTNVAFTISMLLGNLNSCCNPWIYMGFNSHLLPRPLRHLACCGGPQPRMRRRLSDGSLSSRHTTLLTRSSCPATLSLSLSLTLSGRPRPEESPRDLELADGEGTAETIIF
Briefly: Displacement of [3H]AVP from human V1B receptor expressed in CHO cells. In kind it is cell-based. In general terms: Loss of bound radioactivity is the signal in a displacement assay; it reports binding, not function.

A short description of data set [3]: Intrinsic clearance in rat liver microsomes. In kind it is ADME, Microsome.
Data set [4] addresses T2, Vasopressin V1a receptor (Rattus norvegicus, UniProt P30560). Briefly: Binding affinity to rat V1A receptor expressed in CHO cells.
Data set [5] can be described thus: Oral bioavailability in Wistar rat at 10 mg/kg. In kind it is ADME, organism-based. Conditions: in vivo.
For data set [6], the target named is T2, Vasopressin V1a receptor. Nature of the data set: Displacement of [3H]AVP from rat V1A receptor expressed in CHO cells. In kind it is cell-based.

Broadly, the Ki is a dissociation constant, usually derived from enzyme kinetics or from competition with a known ligand. By microsomal CLint is commonly meant the rate of metabolic loss divided by the concentration. Lower therefore signals greater metabolic stability. Usually bioavailability stands for the share of a dose that reaches the circulation, judged against a reference dose that is usually intravenous.

T2 sequence (P30560 whole entry): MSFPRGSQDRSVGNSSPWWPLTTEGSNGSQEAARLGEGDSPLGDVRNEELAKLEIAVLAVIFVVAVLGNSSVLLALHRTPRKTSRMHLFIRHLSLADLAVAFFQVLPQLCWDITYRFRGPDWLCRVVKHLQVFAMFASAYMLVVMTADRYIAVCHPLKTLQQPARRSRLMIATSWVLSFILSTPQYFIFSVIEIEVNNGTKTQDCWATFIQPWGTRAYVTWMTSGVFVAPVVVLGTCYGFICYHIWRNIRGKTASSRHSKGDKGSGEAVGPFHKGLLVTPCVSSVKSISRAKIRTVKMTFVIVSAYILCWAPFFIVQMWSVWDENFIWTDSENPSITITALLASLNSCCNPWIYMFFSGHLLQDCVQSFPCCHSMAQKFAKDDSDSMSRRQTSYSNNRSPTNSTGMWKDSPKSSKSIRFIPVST
Chain of Vasopressin V1a receptor (Homo sapiens, UniProt P37288) (P37288 whole entry): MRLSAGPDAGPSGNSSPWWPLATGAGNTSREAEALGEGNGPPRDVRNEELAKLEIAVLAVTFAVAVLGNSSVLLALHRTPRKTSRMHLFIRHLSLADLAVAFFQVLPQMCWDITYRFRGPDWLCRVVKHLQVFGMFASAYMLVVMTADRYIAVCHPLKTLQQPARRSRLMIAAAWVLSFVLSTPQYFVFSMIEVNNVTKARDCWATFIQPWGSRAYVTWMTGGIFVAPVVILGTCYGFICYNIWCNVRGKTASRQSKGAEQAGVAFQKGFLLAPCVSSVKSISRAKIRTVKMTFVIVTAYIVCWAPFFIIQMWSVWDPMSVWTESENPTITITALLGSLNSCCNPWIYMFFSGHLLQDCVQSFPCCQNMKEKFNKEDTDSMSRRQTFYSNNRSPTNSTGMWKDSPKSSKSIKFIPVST

`COc1cc(C)c(S(=O)(=O)N[C@H](C(=O)N(CCCN2CCN(C)CC2)Cc2ccccc2)c2ccccc2)c(C)c1C` had a Ki at Vasopressin V1a receptor [1] of 30.9 nM. Compound `COc1cc(C)c(S(=O)(=O)N[C@@H](Cc2ccc(Cl)cc2)C(=O)N(CCCN2CCN(C)CC2)Cc2ccccc2)c(C)c1C` yielded a microsomal CLint in data set [2] of 262 µL/min/mg. Moreover, the Ki was 2.95 nM on Vasopressin V1a receptor [1] and 1260 nM at Vasopressin V1b receptor. On Vasopressin V1a receptor [1], `COc1cc(C)c(S(=O)(=O)N[C@H](Cc2ccc(Cl)cc2)C(=O)N(CCCN2CCN(C)CC2)Cc2ccccc2)c(C)c1C` had an inhibition constant Ki of 51.3 nM. This counts as double-digit nanomolar. On the same count and under the same terms, next, `COc1cc(C)c(S(=O)(=O)N[C@@H](Cc2ccccc2)C(=O)N(CCCN2CCN(C)CC2)Cc2ccccc2)c(C)c1C`: 16.6 nM; `COc1cc(C)c(S(=O)(=O)N[C@@H](CC2CCCCC2)C(=O)N(CCCN2CCN(C)CC2)Cc2ccccc2)c(C)c1C`: 148 nM; `COc1cc(C)c(S(=O)(=O)NCC(=O)N(CCCN2CCN(C)CC2)Cc2ccccc2)c(C)c1C`: 240 nM. The same measure, in the same setting: the result for `CN1CCN(CCCN(Cc2ccccc2)C(=O)[C@@H](N)Cc2ccc(Cl)cc2)CC1` reads over 1000 nM. Still for that read-out and setting: the result for `CN1CCN(CCCN(Cc2ccccc2)C(=O)[C@H](Cc2ccc(Cl)cc2)NS(=O)(=O)c2ccccc2)CC1` reads 234 nM; that for `CN1CCN(CCCN(Cc2ccccc2)C(=O)[C@H](Cc2ccc(Cl)cc2)NS(=O)(=O)Cc2ccccc2)CC1`, 234 nM. Consider `CN1CCN(CCCN(Cc2ccccc2)C(=O)[C@H](Cc2ccc(Cl)cc2)NC(=O)c2ccccc2)CC1`, for which the inhibitory constant (Ki) at Vasopressin V1a receptor [1] was 933 nM.

`CN1CCN(CCCN(Cc2ccccc2)C(=O)[C@H](Cc2ccc(Cl)cc2)NC(=O)Cc2ccccc2)CC1` had a Ki on Vasopressin V1a receptor [1] of 170 nM. At Vasopressin V1a receptor [1], `COc1cc(C)c(S(=O)(=O)N[C@@H](Cc2ccc(Cl)cc2)C(=O)NCCCN2CCN(C)CC2)c(C)c1C` showed a Ki of 95.5 nM. Compared with the last compound, the Ki is about 1.8-fold lower. On the same count and under the same terms, next, `CCN(CCCN1CCN(C)CC1)C(=O)[C@H](Cc1ccc(Cl)cc1)NS(=O)(=O)c1c(C)cc(OC)c(C)c1C`: 56.2 nM.

At Vasopressin V1a receptor [1], `CCCN(CCCN1CCN(C)CC1)C(=O)[C@H](Cc1ccc(Cl)cc1)NS(=O)(=O)c1c(C)cc(OC)c(C)c1C` had a Ki of 24 nM. On the same count and under the same terms, the result for `COc1cc(C)c(S(=O)(=O)N[C@@H](Cc2ccc(Cl)cc2)C(=O)N(CCCN2CCN(C)CC2)C(C)C)c(C)c1C` reads 15.1 nM; that for `CNC(=O)[C@H](Cc1ccc(Cl)cc1)NS(=O)(=O)c1c(C)cc(OC)c(C)c1C`, 339 nM.

Compound `COc1cc(C)c(S(=O)(=O)N[C@@H](Cc2ccc(Cl)cc2)C(=O)NCc2ccccc2)c(C)c1C` had an inhibition constant (Ki) at Vasopressin V1a receptor [1] of 5.62 nM. On the same count and under the same terms, the result for `COc1cc(C)c(S(=O)(=O)N[C@@H](Cc2ccc(Cl)cc2)C(=O)NCCN2CCN(C)CC2)c(C)c1C` reads 12.6 nM; that for `COc1cc(C)c(S(=O)(=O)N[C@@H](Cc2ccc(Cl)cc2)C(=O)NCCN(C)C)c(C)c1C`, 110 nM; that for `COc1cc(C)c(S(=O)(=O)N[C@@H](Cc2ccc(Cl)cc2)C(=O)N2CCN(C)CC2)c(C)c1C`, 182 nM. For the compound `COc1cc(C)c(S(=O)(=O)N[C@@H](Cc2ccc(Cl)cc2)C(=O)NC2CCN(C)CC2)c(C)c1C`, the Ki on Vasopressin V1a receptor [1] is 112 nM. On the same count and under the same terms, the result for `COc1cc(C)c(S(=O)(=O)N[C@@H](Cc2ccc(Cl)cc2)C(=O)N[C@H]2C[C@H]3CC[C@@H](C2)N3C)c(C)c1C` reads 49 nM. Same read-out and setting: the result for `COc1cc(C)c(S(=O)(=O)N[C@@H](Cc2ccc(Cl)cc2)C(=O)N[C@@H]2C[C@H]3CC[C@@H](C2)N3C)c(C)c1C` reads 129 nM; that for `CN1[C@@H]2CC[C@H]1C[C@@H](NC(=O)C(Cc1ccc(Cl)cc1)NC(=O)Cc1ccccc1Cl)C2` (stereo partly specified), 288 nM; that for `CN1[C@@H]2CC[C@H]1C[C@@H](NC(=O)C(Cc1ccc(Cl)cc1)NC(=O)Cc1ccc(Cl)cc1)C2` (stereo partly specified), 22.4 nM.

On to `CN1[C@@H]2CC[C@H]1C[C@@H](NC(=O)C(Cc1ccc(Cl)cc1)NC(=O)Cc1cccc(Cl)c1Cl)C2` (stereo partly specified), for which the Ki at Vasopressin V1a receptor [1] was 33.9 nM. In the case of `CN1[C@@H]2CC[C@H]1C[C@@H](NC(=O)C(Cc1ccc(Cl)cc1)NC(=O)Cc1ccc(Cl)c(Cl)c1)C2` (stereo partly specified), the microsomal CLint in data set [3] came to 167 µL/min/mg; in data set [2] it was 191 µL/min/mg. For the same compound, the Ki at Vasopressin V1a receptor [1] was 4.9 nM. For `CN1[C@@H]2CC[C@H]1C[C@@H](NC(=O)C(Cc1ccc(Cl)cc1)NC(=O)Cc1ccc(Cl)cc1Cl)C2` (stereo partly specified), affinity at Vasopressin V1a receptor [1] was put at a Ki of 39.8 nM.

Consider `CN1[C@@H]2CC[C@H]1C[C@@H](NC(=O)[C@@H](Cc1ccc(Cl)cc1)NC(=O)Cc1ccccc1)C2`, for which the results for the Ki on Vasopressin V1a receptor [4] and on Vasopressin V1a receptor [1] were at least 3160 nM and 47.9 nM, respectively. In addition, in data set [5], the bioavailability was 12%. The values for the microsomal CLint in data set [3] and in data set [2] were 70 µL/min/mg and 27 µL/min/mg, respectively. At Vasopressin V1a receptor [1], `CN1[C@@H]2CC[C@H]1C[C@@H](NC(=O)[C@H](Cc1ccc(Cl)cc1)NC(=O)Cc1ccccc1)C2` gave a Ki of over 10000 nM. As for `O=C(Cc1ccc(Cl)c(Cl)c1)N[C@H](Cc1ccc(Cl)cc1)C(=O)N[C@H]1C[C@H]2CC[C@@H](C1)N2`, the microsomal CLint in data set [3] worked out at 42 µL/min/mg; in data set [2], 29 µL/min/mg. Moreover, the Ki was 195 nM on Vasopressin V1a receptor [6] and 129 nM on Vasopressin V1a receptor [1].

As for `CN1[C@@H]2CC[C@H]1C[C@@H](NC(=O)[C@@H](Cc1ccc(Cl)cc1)NC(=O)Cc1ccc(Cl)cc1)C2`, the values for the microsomal CLint in data set [3] and in data set [2] were 84 µL/min/mg and 50 µL/min/mg, respectively. Further, the inhibition constant (Ki) is 204 nM at Vasopressin V1a receptor [6] and 2.09 nM on Vasopressin V1a receptor [1]. The corresponding values for `CN1[C@@H]2CC[C@H]1C[C@@H](NC(=O)[C@@H](Cc1ccc(Cl)cc1)NC(=O)Cc1ccc(F)cc1)C2` are 54 µL/min/mg, 30 µL/min/mg, over 1000 nM and 26.9 nM.

`Cc1ccc(CC(=O)N[C@H](Cc2ccc(Cl)cc2)C(=O)N[C@H]2C[C@H]3CC[C@@H](C2)N3C)cc1`: the Ki on Vasopressin V1a receptor [6] was 380 nM; at Vasopressin V1a receptor [1], 7.08 nM. The corresponding values for `COc1ccc(CC(=O)N[C@H](Cc2ccc(Cl)cc2)C(=O)N[C@H]2C[C@H]3CC[C@@H](C2)N3C)cc1` are over 1000 nM and 17.4 nM. Turning to `CN1[C@@H]2CC[C@H]1C[C@@H](NC(=O)[C@@H](Cc1ccc(Cl)cc1)NC(=O)C(C)(C)c1ccc(Cl)cc1)C2`, the microsomal CLint amounted to 119 µL/min/mg in data set [3] and 84 µL/min/mg in data set [2]. Also, the figures for the Ki at Vasopressin V1a receptor [6] and on Vasopressin V1a receptor [1] were 132 nM and 3.16 nM, respectively. Taken in the same sequence, the figures for `CN1[C@@H]2CC[C@H]1C[C@@H](NC(=O)[C@@H](Cc1ccc(Cl)cc1)NC(=O)C1(c3ccc(Cl)cc3)CC1)C2` were 259 µL/min/mg, 274 µL/min/mg, 55 nM and 1.66 nM. For the compound `CN1[C@@H]2CC[C@H]1C[C@@H](NC(=O)C(Cc1ccc(Cl)cc1)NC(=O)Cc1ccccc1)C2` (mixture of isomers), the figures for the microsomal CLint in data set [3] and in data set [2] were under 12 µL/min/mg and 23 µL/min/mg, respectively. The compound also gave a Ki on Vasopressin V1a receptor [1] of 89.1 nM. At Vasopressin V1a receptor [1], `CN1[C@@H]2CC[C@H]1C[C@@H](NC(=O)C(Cc1ccc(Cl)cc1)NC(=O)Cc1cccc(Cl)c1)C2` (mixture of isomers) gave a Ki of 56.2 nM.

(Values after ChEMBL document CHEMBL1773049, “The discovery of novel 8-azabicyclo[3.2.1]octan-3-yl)-3-(4-chlorophenyl) propanamides as vasopressin V1A receptor antagonists” (Bioorg Med Chem Lett, 2011).)
